Measurements reported in US20020187123A1, “Therapeutic compositions and methods for the inhibition of angiogenesis” (priority 2001, published 2002).

Legend:
[1] = tested on: VEGF-stimulated endothelial vessel formation by aortic endothelium; experiment: Aortic ring explant assay of endothelial vessel morphogenesis; assay type: cell-based; settings: aortae of wild type mice
Text: The results described above were extended using an aortic ring explant assay of endothelial vessel morphogenesis. […] The more rapid and extensive growth in E-selectin deficient aortae is therefore consistent with the hypothesis that E-selectin is required for endostatin activity.

tumor growth = settings: mouse model; cited from earlier work
[2] = tested on: bFGF-stimulated corneal angiogenesis; experiment: Corneal angiogenesis assay; assay type: in vivo, mice; settings: delivered by intraperitoneal osmotic pump
Text: The effect of endostatin on bFGF-stimulated corneal angiogenesis was examined in wild type and E-selectin deficient mice.

[3] = tested on: isolated, cultured human endothelial cells; experiment: Endostatin responsiveness of isolated, cultured human endothelial cells; assay type: cell-based

In the case of endostatin, the “effect on vessel formation” value [1] is listed as “vessel formation was inhibited”, the “effect on tumor growth” value (tumor growth) is listed as “dramatic reduction in tumor growth” and the “effect on FGF-stimulated corneal angiogenesis” value ([2]; E-selectin deficient mice) is listed as “not in the E-selectin deficient mice”. For the same molecule, the “effect on FGF-stimulated corneal angiogenesis” value ([2]; wild type mice) was “inhibited FGF-stimulated angiogenesis”.

In the case of tumor necrosis factor-alpha, the “effect on endostatin responsiveness” value ([3]; isolated cultured human endothelial cells, even in the presence of E-selectin) is reported as “appears to block and/or prevent endostatin responsiveness”.

B1: E-selectin (protein, UniProt P16581 22-610, looked up)
E-selectin: WSYNTSTEAMTYDEASAYCQQRYTHLVAIQNKEEIEYLNSILSYSPSYYWIGIRKVNNVWVWVGTQKPLTEEAKNWAPGEPNNRQKDEDCVEIYIKREKDVGMWNDERCSKKKLALCYTAACTNTSCSGHGECVETINNYTCKCDPGFSGLKCEQIVNCTALESPEHGSLVCSHPLGNFSYNSSCSISCDRGYLPSSMETMQCMSSGEWSAPIPACNVVECDAVTNPANGFVECFQNPGSFPWNTTCTFDCEEGFELMGAQSLQCTSSGNWDNEKPTCKAVTCRAVRQPQNGSVRCSHSPAGEFTFKSSCNFTCEEGFMLQGPAQVECTTQGQWTQQIPVCEAFQCTALSNPERGYMNCLPSASGSFRYGSSCEFSCEQGFVLKGSKRLQCGPTGEWDNEKPTCEAVRCDAVHQPPKGLVRCAHSPIGEFTYKSSCAFSCEEGFELHGSTQLECTSQGQWTEEVPSCQVVKCSSLAVPGKINMSCSGEPVFGTVCKFACPEGWTLNGSAARTCGATGHWSGLLPTCEAPTESNIPLVAGLSAAGLSLLTLAPFLLWLRKCLRKAKKFVPASSCQSLESDGSYQKPSYIL
notes: a cell surface glycoprotein expressed by the endothelium
With B1 the “effect on endostatin responsiveness” value ([3]; isolated, cultured human endothelial cells) was “can be sufficient to confer endostatin responsiveness”.
